The structures appear in SMILES notation. pKi: −log10 of the molar value.

In test [1] the target is T1, Prothrombin (Homo sapiens, UniProt P00734). The test can be described thus: Binding affinity towards thrombin was determined.
Test [2] concerns the target T1, Prothrombin.
Description: Binding rate constant towards thrombin was determined

For `N=C(N)NCCC[C@H](NC(=O)[C@@H]1CC[C@@H]2CC[C@@](N)(Cc3ccccc3)C(=O)N21)C(=O)c1nc2ccccc2s1`, the pKi at Prothrombin [1] was 9.19. At Prothrombin [2], `N=C(N)NCCC[C@H](NC(=O)[C@@H]1CCN2CC[C@@](N)(Cc3ccccc3)C(=O)N12)C(=O)C(=O)NCCc1ccccc1` showed a k on of 640000 M⁻¹ s⁻¹. Same read-out and setting: for `NCCCC[C@H](NC(=O)[C@@H]1CCN2CC[C@@](N)(Cc3ccccc3)C(=O)N12)C(=O)C(=O)NC1CCCCC1` the value was 1e+06 M⁻¹ s⁻¹.

The values are drawn from ChEMBL document CHEMBL1132634, “Bound structures of novel P3-P1' beta-strand mimetic inhibitors of thrombin” (J Med Chem, 1999).
